# Experiments:
# Assay in all cases: SAFETYScan GPCR Calcium Flux, Antagonist
# Type in all cases: cell-based
# EDNRA = biological target: T1, EDNRA (Homo sapiens, UniProt P25101)
# T1 sequence (P25101 21-427): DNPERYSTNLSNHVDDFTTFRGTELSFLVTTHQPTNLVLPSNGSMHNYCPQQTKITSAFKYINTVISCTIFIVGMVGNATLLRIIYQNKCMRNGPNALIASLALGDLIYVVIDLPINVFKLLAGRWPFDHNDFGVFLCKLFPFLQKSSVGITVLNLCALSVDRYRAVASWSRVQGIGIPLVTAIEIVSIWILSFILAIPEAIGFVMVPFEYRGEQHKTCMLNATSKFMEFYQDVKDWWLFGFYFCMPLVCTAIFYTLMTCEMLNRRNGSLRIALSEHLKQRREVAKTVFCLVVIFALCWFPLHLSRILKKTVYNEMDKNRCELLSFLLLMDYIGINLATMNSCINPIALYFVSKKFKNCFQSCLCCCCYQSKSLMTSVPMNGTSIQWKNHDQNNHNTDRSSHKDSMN
# From the text: (§1) Supplement jm1c02175_si_002.xlsx, sheet "SAFETYScan" | column: RC50 (uM); Max Response
# ADRA1A = biological target: T2, ADRA1A (Homo sapiens, UniProt P35348)
# T2 sequence (P35348 1-466): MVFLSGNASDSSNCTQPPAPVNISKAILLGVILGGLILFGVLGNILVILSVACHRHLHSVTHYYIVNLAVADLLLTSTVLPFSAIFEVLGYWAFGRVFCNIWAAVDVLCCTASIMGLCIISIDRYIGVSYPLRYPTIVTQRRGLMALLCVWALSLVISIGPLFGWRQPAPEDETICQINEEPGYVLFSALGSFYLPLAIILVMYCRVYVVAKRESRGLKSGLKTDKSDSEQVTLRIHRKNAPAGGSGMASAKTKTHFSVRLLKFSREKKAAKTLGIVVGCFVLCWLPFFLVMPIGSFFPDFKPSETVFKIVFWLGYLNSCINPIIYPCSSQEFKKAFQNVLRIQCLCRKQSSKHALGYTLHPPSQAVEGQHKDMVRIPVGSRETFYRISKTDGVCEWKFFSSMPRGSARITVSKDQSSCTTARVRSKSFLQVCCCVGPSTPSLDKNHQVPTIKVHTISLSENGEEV
# From the text: as §1
# AVPR1A = AVPR1A (Homo sapiens, UniProt P37288)
# Chain of AVPR1A (P37288 whole entry): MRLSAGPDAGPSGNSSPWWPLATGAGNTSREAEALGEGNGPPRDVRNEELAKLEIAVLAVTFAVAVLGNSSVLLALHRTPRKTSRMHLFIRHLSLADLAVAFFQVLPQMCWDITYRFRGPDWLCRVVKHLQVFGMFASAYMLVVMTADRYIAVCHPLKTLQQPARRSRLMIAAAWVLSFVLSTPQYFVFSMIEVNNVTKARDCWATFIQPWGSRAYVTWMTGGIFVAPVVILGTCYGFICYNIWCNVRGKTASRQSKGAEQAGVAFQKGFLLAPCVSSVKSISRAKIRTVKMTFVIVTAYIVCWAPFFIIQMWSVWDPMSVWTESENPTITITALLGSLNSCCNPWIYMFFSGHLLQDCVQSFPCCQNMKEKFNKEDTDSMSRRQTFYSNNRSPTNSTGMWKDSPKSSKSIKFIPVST
# From the text: as §1
# HRH1 = HRH1 (Homo sapiens, UniProt P35367)
# Chain of HRH1 (P35367 whole entry): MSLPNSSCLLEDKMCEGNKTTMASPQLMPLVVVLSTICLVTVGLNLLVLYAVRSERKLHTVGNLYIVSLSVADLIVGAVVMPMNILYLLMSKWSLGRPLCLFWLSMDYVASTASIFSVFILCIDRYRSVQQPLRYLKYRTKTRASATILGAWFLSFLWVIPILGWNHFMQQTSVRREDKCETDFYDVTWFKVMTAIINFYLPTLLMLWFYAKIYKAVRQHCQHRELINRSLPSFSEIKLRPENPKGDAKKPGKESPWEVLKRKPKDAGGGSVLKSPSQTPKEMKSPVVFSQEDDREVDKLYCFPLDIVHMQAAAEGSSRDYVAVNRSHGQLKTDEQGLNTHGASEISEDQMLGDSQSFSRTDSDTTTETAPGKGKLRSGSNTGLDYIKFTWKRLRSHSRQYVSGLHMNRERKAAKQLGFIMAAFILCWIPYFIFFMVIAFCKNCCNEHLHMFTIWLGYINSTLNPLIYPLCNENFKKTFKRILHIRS
# From the text: as §1
# HTR2A = HTR2A (Homo sapiens, UniProt P28223)
# Chain of HTR2A (P28223 whole entry): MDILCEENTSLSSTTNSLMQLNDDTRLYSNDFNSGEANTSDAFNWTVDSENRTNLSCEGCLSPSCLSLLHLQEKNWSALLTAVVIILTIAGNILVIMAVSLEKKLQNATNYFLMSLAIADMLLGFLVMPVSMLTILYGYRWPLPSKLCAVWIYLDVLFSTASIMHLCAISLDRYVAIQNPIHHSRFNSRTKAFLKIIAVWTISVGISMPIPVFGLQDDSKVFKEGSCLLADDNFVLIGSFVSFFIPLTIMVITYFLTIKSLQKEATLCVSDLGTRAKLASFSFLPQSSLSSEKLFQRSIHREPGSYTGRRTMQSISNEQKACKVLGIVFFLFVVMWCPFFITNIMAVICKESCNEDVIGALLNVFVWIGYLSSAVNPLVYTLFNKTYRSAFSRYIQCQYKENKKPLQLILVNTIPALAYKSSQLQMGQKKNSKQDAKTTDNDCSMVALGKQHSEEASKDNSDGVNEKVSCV
# From the text: as §1
# CCKAR = biological target: T3, CCKAR (Homo sapiens, UniProt P32238)
# T3 sequence (P32238 1-428): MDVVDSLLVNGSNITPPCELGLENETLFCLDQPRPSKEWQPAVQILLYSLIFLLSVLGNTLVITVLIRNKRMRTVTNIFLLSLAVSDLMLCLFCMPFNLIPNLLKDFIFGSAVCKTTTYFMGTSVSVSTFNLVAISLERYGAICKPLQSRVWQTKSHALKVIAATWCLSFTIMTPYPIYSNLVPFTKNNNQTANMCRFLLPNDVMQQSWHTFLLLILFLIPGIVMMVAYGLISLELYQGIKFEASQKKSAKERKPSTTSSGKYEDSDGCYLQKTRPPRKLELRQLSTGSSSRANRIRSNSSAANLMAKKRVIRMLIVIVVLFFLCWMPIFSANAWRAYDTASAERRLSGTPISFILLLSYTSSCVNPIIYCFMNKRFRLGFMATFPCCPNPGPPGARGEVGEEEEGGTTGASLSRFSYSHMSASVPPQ
# From the text: as §1
# HTR2B = biological target: T4, HTR2B (Homo sapiens, UniProt P41595)
# T4 construct: expressed in transfected cells
# T4 sequence (P41595 whole entry): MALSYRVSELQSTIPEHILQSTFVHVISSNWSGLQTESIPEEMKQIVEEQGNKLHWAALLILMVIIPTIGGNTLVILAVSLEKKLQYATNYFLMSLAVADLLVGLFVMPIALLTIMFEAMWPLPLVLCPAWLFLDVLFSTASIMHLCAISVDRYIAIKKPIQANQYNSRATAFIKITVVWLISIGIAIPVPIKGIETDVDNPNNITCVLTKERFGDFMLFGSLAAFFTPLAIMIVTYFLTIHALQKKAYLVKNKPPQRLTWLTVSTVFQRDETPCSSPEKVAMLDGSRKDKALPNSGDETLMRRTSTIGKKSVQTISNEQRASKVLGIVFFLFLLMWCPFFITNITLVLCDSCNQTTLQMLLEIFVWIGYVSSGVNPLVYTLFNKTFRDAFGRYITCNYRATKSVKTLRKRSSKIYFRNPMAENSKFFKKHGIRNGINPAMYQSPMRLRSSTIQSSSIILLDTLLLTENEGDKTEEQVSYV
# From the text: as §1
# CHRM1 = biological target: T5, CHRM1 (Homo sapiens, UniProt P11229)
# T5 sequence (P11229 1-460): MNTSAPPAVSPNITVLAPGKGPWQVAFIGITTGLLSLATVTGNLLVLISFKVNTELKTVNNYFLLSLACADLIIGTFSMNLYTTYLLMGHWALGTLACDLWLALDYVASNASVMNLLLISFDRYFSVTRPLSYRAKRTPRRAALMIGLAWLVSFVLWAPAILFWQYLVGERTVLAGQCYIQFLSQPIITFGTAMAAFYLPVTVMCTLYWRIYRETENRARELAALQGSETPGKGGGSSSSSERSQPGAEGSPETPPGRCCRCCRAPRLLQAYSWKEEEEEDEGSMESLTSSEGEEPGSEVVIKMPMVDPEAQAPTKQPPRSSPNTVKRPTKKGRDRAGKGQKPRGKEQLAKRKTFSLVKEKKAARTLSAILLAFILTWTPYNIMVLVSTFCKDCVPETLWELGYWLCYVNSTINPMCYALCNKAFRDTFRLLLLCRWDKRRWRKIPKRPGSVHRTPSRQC
# From the text: as §1
compound,measurement,setting,value
"C[C@H]1C[C@@H](O)CN(c2ncc(Cl)c(Nc3ccc4c(c3)c3c(c(=O)n4C)OCC(F)(F)[C@H](C4CC4)N3)n2)C1 [12a CCT373566, (S)-10-((5-Chloro-2-((3R,5S)-3-hydroxy-5-methylpiperidin-1-yl)pyrimidin-4-yl)amino)-2-cyclopropyl-3,3-difluoro-7-methyl-1,2,3,4-tetrahydro-[1,4]oxazepino[2,3-c]quinolin-6(7H)-one]",Emax,EDNRA; read-out: Max Response,0%
same,IC50,EDNRA; read-out: RC50 (IC50),> 10 µM
same,Emax,ADRA1A; read-out: Max Response,0%
same,IC50,ADRA1A; read-out: RC50 (IC50),> 10 µM
same,Emax,AVPR1A; read-out: Max Response,0%
same,IC50,AVPR1A; read-out: RC50 (IC50),> 10 µM
same,Emax,HRH1; read-out: Max Response,0%
same,IC50,HRH1; read-out: RC50 (IC50),> 10 µM
same,Emax,HTR2A; read-out: Max Response,1.76%
same,IC50,HTR2A; read-out: RC50 (IC50),> 10 µM
same,Emax,CCKAR; read-out: Max Response,0%
same,IC50,CCKAR; read-out: RC50 (IC50),> 10 µM
same,Emax,HTR2B; read-out: Max Response,24.2%
same,IC50,HTR2B; read-out: RC50 (IC50),> 10 µM
same,Emax,CHRM1; read-out: Max Response,3.44%
same,IC50,CHRM1; read-out: RC50 (IC50),> 10 µM
